Among the data in EP4737450A1 (Longwood Pharmaceuticals (Hangzhou) Co., Ltd, priority 2023, dated 2025) are IC50 values, retold here.

Where two headings read alike, the source gives them in different places.

In this test the target is T1, plasma kallikrein (PKa) (Homo sapiens, UniProt P03952).
T1 construct: purchased R & D 2497-SE
In words: Inhibitory activity against plasma kallikrein in vitro (fluorescence intensity enzyme assay, Pro-Phe-Arg-AMC substrate). It counts as biochemical. To be noted: Pro-Phe-Arg-AMC substrate. As for the experimental part: Test of the inhibitory activities of the compounds of the present invention against plasma kallikrein (PKa), KLK1 and FXIa in vitro.
The final concentrations of enzyme protein and Pro-Phe-Arg-AMC in the reaction mixture were 10 nM and 60 µM, respectively. The starting concentration of the positive reference substance Avoralstat was 100 nM, 3-fold dilution, 10 + 0 dose. 0.05 µL of compound in 100% DMSO was delivered to a 384-well plate by an acoustic liquid delivery technique (Echo665; nanoliter range). Compound duplex test. […] IC50 values and nonlinear regression curve fitting were obtained using GraphPad Prism software.

[1] abbreviates: plasma kallikrein enzyme assay, read-out: PKa IC50.

T1 sequence (P03952 391-638 limits assumed): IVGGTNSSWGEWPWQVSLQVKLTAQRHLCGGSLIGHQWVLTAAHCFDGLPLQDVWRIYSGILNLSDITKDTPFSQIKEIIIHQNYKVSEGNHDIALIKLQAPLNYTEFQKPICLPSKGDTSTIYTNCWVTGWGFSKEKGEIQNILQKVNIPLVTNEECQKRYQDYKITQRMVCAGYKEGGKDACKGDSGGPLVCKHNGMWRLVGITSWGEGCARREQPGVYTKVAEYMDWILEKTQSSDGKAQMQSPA
T1 sequence (P03952 20-390 partner limits assumed): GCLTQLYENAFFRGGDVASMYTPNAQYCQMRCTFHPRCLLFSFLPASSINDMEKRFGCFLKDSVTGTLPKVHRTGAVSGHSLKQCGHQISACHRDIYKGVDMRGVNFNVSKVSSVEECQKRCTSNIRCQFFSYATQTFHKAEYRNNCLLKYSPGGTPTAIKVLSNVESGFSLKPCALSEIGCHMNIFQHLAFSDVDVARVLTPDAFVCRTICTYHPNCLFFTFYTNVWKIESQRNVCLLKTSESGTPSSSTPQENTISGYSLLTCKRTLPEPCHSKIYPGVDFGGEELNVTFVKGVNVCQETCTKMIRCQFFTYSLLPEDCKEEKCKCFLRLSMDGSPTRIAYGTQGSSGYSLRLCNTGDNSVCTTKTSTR

Regarding `COCc1nn(Cc2ccc(CC3CC3)cc2)cc1C(=O)NCc1nccc(OC)c1F` [Compound 91, 1-(4-(cyclopropylmethyl)benzyl)-N-((3-fluoro-4-methoxypyridin-2-yl)methyl)-3-(methoxymethyl)-1H-pyrazole-4-carboxamide], the IC50 (in general, the point on the concentration scale where inhibition reaches its midpoint) under setting [1] is > 100 nM.
On the same count and under the same terms, as for `CCn1cnc2c1CC[C@@H]2NC(=O)c1cn(Cc2ccc(Cn3ccccc3=O)cc2)nc1COC` [Compound 131], the figure is 27.9 nM.
On the same count and under the same terms, the value for `COCc1nn(Cc2ccc(Oc3ccccc3)cc2)cc1C(=O)NCc1ccc2nccn2c1` [Compound 125] was 329 nM; that for `Cc1cc(N)nc(C)c1CNC(=O)c1nnc(Cc2cn3cc(C4CC4)ccc3n2)o1` [Compound 17] was 36.2 nM.
Take `C#Cc1nn(Cc2ccc(Cn3ccccc3=O)cc2)cc1C(=O)NCc1nccc(OC)c1F` [Compound 85]: under setting [1], the IC50 amounted to 58.7 nM.
Same read-out and setting: as for `O=C(NCc1nccc(C2CC2)c1F)c1cn(Cc2ccc(Cn3ccccc3=O)cc2)nc1N1CC(F)(F)C1` [Compound 272], the figure is 42 nM; as for `COCc1nn(Cc2ccc(N3CCOCC3=O)cc2)cc1C(=O)NCc1cn2c(n1)CNCC2` [Compound 112], > 100 nM.
Same read-out and setting: as for `Cc1cc(N)nc(C)c1CNC(=O)c1ncn(Cc2ccc(CN3CCCCC3=O)cc2)n1` [Compound 78], the figure is 3.72 nM.
For `COCc1nn(Cc2ccc(-n3ccccc3=O)cc2)cc1C(=O)NCc1cn2c(n1)CNCC2` [Compound 145], the IC50 under setting [1] was > 1000 nM.
As for `COCc1nn(Cc2ccc(Cn3c(=O)sc4ccccc43)cc2)cc1C(=O)NCc1nccc(OC)c1F` [Compound 140], the IC50 under setting [1] worked out at 78 nM.
Still for that read-out and setting: as for `Cc1cc(N)nc(C)c1CNC(=O)c1nc(Cc2ccc(Cn3ccccc3=O)cc2)nn1C` [Compound 29], the figure is > 1000 nM.
The compound `COCC1(F)CN(Cc2nn(Cc3ccc(Cn4ccccc4=O)cc3)cc2C(=O)NCc2nccc(OC)c2F)C1` [Compound 205, 3-((3-fluoro-3-(methoxymethyl)azetidin-1-yl)methyl)-N-(3-fluoro-4-methoxypyridin-2-yl)methyl] came in with a half-inhibitory concentration (IC50) (PKa IC50, plasma kallikrein enzyme assay) of 8.98 nM.
Turning to `O=C(NCc1nccc(-n2nccn2)c1F)c1cn(Cc2ccc(Cn3ccccc3=O)cc2)nc1C1COC1` [Compound 352], the IC50 under setting [1] worked out at 90 nM.
Regarding `O=C(NCc1cc2ccncc2[nH]1)c1cn(Cc2ccc(Oc3ccccc3)cc2)nc1C(F)(F)F` [Compound 186], the IC50 under setting [1] stood at 709 nM.
Same read-out and setting: as for `O=C(NCc1cc2ccncc2[nH]1)c1nc(Cc2ccc(Cn3ccccc3=O)cc2)ns1` [Compound 177], the figure is 17.5 nM; as for `COc1ccnc(CNC(=O)c2cn(Cc3ccc(Cn4ccccc4=O)cc3)nc2-c2cnc(O)nc2)c1F` [Compound 165], 34.5 nM; as for `COc1ccnc(CNC(=O)c2cn(Cc3ccc(Cn4c(C(F)(F)F)nccc4=O)cc3)nc2C(F)(F)F)c1F` [Compound 198], > 1000 nM.
On the same count and under the same terms, as for `N=C(N)c1ccc(CNC(=O)c2cn(Cc3ccc(CC4CC4)cc3)nc2C(F)(F)F)c(F)c1` [Compound 275], the figure is 56 nM.
On the same count and under the same terms, as for `CNC(=N)c1ccc(CNC(=O)c2cnn(Cc3ccc(CC4CC4)cc3)c2)cc1` [Compound 271], the figure is 855 nM; as for `Nc1cc2c(cn1)[C@@H](NC(=O)c1ncn(Cc3ccc(Cn4ccccc4=O)cc3)n1)CO2` [Compound 82], 26.6 nM.
On to `COCc1nn(Cc2ccc(N3CC4C(C3)C4(F)F)cc2C#N)cc1C(=O)NCc1cn2c(n1)CNCC2` (stereo not shown) [Compound 104], for which the IC50 under setting [1] is > 100 nM.
The same measure, in the same setting: the value for `COc1ccnc(CNC(=O)c2cn(Cc3ccc(CN4C(=O)C5(CC5)c5ccc(F)cc54)cc3)nc2C(F)(F)F)c1F` [Compound 181] was 613 nM; that for `COc1ccnc(CNC(=O)c2cn(Cc3ccc(Cn4ccccc4=O)cc3)nc2CN2C(=O)CCCC2=O)c1F` [Compound 308] was 3.49 nM; that for `COCc1nn(Cc2ccc(-n3ccccc3=O)cc2)cc1C(=O)NCc1cc2ccncc2[nH]1` [Compound 97] was 503 nM.
The same measure, in the same setting: as for `COc1ccnc(CNC(=O)c2cn(Cc3ccc(Cn4ccccc4=O)cc3)nc2-c2cncnc2)c1F` [Compound 304], the figure is 7.24 nM.
